# Experimental data reported in patent publication US10301267B2, “Compounds” (AstraZeneca AB, priority 2006, dated 2019).
# Biological target: FGFR1 active kinase (Homo sapiens, UniProt P11362)
# Assay: FGFR Kinase assay - Caliper Echo Dosing
# Assay type: biochemical
# Settings: FGFR1 7.2 nM, 408 uM ATP, acoustic dosing; geometric mean of n
# Method: FGFR Kinase Assay—Caliper Echo Dosing
# To determine inhibition of FGFR activity, kinase assays were conducted using Caliper technology.
# Kinase activity assays were performed in Greiner 384-well low volume plates, with a total reaction volume of 12 ul per well. Final concentration of FGFR1 active kinase in each reaction well was 7.2 nM. The substrate for each assay was a custom peptide with fluorescent tag (13 amino acids in length, […] with the fluorescene tag on the first K).
# Compounds were dispensed directly in to assay plates using a Labcyte Echo 550 acoustic droplet ejection unit. Each well received 120 nl of DMSO containing compound such that the final concentration of compound in the assay prior to the addition of the stop solution ranged between 30 uM and 30 pM. In addition to compounds each plate carried maximum and minimum control wells, the max wells contained 120 nl of DMSO and the min wells contained 120 nl of 10 mM staurosporine (LC Laboratories, MA 01801, USA Catalogue No. S-9300). The Enzyme (at 7.2 nM [final]) and Substrate (at 3.6 uM [final]) were added separately to the compound plates, in reaction buffer [comprising: 50 mM MOPS (Sigma, Catalogue No. M1254)—pH 6.5, 0.004% Triton (Sigma, Catalogue No. X-100), 2.4 mM DTT, 12 mM MgCl2, 408 uM ATP] resulting in a final DMSO concentration in the reaction mix of 1%.
# Assay plates were incubated at room temperature for 1.5 h, before the reaction was stopped with the addition of buffer [comprising: 100 mM HEPES—pH7.5, 0.033% Brij-35 (Sigma Catalogue No. B4184), 0.22% Caliper Coating Reagent #3 (Caliper Life Sciences Catalogue No. 760050), 88 mM EDTA, 5% DMSO]. Stopped assay plates were then read using the Caliper LabChip® LC3000 (which uses microfludics to measure a shift in mobility between fluorescent labelled peptide and the FGFR1 kinase—phosphorylated form of this peptide).
# In the assay, compounds were tested at a range of concentrations. […] Percentage inhibition at 1 uM, as expressed herein, is a calculated value based on the curve fit that was generated experimentally. From the fitted curve plot, the effect of compound at a concentration of 1 uM was calculated as a percentage inhibition. The IC50 is the concentration of compound, which inhibits FGFR1 kinase activity by 50% in the context of this assay. This value is calculated using a standard curve fitting software package Origin™.
# FGFR1 active kinase, sequence (P11362 22-822): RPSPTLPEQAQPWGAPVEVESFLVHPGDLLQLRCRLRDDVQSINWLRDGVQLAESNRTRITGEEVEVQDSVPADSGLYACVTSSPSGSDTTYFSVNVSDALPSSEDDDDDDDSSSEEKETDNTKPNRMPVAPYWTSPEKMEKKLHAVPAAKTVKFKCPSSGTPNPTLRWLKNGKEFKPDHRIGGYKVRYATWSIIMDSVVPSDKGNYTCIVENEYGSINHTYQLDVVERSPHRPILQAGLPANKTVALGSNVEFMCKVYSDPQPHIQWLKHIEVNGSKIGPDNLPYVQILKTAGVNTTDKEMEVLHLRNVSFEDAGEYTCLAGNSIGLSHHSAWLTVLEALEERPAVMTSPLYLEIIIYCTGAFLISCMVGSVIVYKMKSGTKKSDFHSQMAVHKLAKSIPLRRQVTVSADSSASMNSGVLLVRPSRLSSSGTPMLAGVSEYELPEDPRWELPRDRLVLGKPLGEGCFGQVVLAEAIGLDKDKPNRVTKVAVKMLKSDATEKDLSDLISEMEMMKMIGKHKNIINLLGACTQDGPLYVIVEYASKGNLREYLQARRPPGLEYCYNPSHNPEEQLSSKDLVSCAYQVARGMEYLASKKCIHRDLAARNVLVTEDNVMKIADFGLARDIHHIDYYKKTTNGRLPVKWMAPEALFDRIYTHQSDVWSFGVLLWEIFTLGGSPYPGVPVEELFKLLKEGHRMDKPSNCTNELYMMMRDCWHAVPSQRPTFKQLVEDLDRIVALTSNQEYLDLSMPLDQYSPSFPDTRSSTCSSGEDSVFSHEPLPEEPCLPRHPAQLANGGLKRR
row,Structure (SMILES),IC50
1,"COc1cc(COc2cc(NC(=O)c3cnc(N4C[C@@H](C)N(CC#N)[C@@H](C)C4)cn3)[nH]n2)cc(OC)c1 [Example 131, 5-[(3R,5S)-4-(cyanomethyl)-3,5-dimethylpiperazin-1-yl]-N-[5-[(3,5-dimethoxyphenyl)methoxy]-2H-pyrazol-3-yl]pyrazine-2-carboxamide]",3.5 nM
2,"COc1cc(COc2cc(NC(=O)c3ccc(N4CCN(C)C(C)C4)cc3)[nH]n2)cc(OC)c1 (stereo not drawn) [Example 101, N-[5-[(3,5-dimethoxyphenyl)methoxy]-2H-pyrazol-3-yl]-4-(3,4-dimethylpiperazin-1-yl)benzamide]",21 nM
3,"COc1cc(COc2cc(NC(=O)c3ccc(N4CCN(C)CC4)s3)[nH]n2)cc(OC)c1 [Example 107, N-[5-[(3,5-dimethoxyphenyl)methoxy]-2H-pyrazol-3-yl]-5-(4-methylpiperazin-1-yl)thiophene-2-carboxamide]",1.1 nM
4,"COc1cc(CCc2cc(NC(=O)c3ccc(CN(C)CC4CCCO4)cc3)n[nH]2)cc(OC)c1 (stereo not drawn) [Example 57, N-[5-[2-(3,5-Dimethoxyphenyl)ethyl]-1H-pyrazol-3-yl]-4-[(methyl-(oxolan-2-ylmethyl)amino)methyl]benzamide]",5.3 nM
5,"COc1cc(COc2cc(NC(=O)c3ccc(N4CCN5CCCCC5C4)cc3)[nH]n2)cc(OC)c1 (stereo not drawn) [Example 98, 4-(1,3,4,6,7,8,9,9a-octahydropyrido[2,1-c]pyrazin-2-yl)-N-[5-[(3,5-dimethoxyphenyl)methoxy]-2H-pyrazol-3-yl]benzamide]",3 nM
6,"COc1cc(COc2cc(NC(=O)c3cnc(Cl)cn3)[nH]n2)cc(OC)c1 [5-Chloro-N-[5-[(3,5-dimethoxyphenyl)methoxy]-2H-pyrazol-3-yl]pyrazine-2-carboxamide]",60 nM
7,"C=CCN1CCC(c2ccc(C(=O)Nc3cc(CCc4cc(OC)cc(OC)c4)n[nH]3)cc2)CC1 [Example 144, N-[5-[2-(3,5-dimethoxyphenyl)ethyl]-2H-pyrazol-3-yl]-4-(1-prop-2-enylpiperidin-4-yl)benzamide]",0.041 nM
8,"COc1cc(COc2cc(NC(=O)c3cnc(N4C[C@@H](C)N(C)[C@@H](C)C4)cn3)[nH]n2)cc(OC)c1 [Example 130, N-[5-[(3,5-dimethoxyphenyl)methoxy]-2H-pyrazol-3-yl]-5-[(3R,5S)-3,4,5-trimethylpiperazin-1-yl]pyrazine-2-carboxamide]",0.59 nM
9,"COc1cc(CCc2cc(NC(=O)c3cnc(C4=CCN(C)CC4)cn3)[nH]n2)cc(OC)c1 [Example 153, N-[5-[2-(3,5-dimethoxyphenyl)ethyl]-2H-pyrazol-3-yl]-5-(1-methyl-3,6-dihydro-2H-pyridin-4-yl)pyrazine-2-carboxamide]",0.82 nM
10,"COc1cc(COc2cc(NC(=O)c3ccc(N4CC5CCCNC5C4)cc3)[nH]n2)cc(OC)c1 (stereo not drawn) [Example 151, 4-(1,2,3,4,4a,5,7,7a-octahydropyrrolo[3,4-b]pyridin-6-yl)-N-[5-[(3,5-dimethoxyphenyl)methoxy]-2H-pyrazol-3-yl]benzamide]",1.3 nM
11,"COc1cc(COc2cc(NC(=O)c3cnc(N4CCN5CCCCC5C4)cn3)[nH]n2)cc(OC)c1 (stereo not drawn) [Example 115, 5-(1,3,4,6,7,8,9,9a-Octahydropyrido[2,1-c]pyrazin-2-yl)-N-[5-[(3,5-dimethoxyphenyl)methoxy]-2H-pyrazol-3-yl]pyrazine-2-carboxamide]",2.3 nM
12,"COc1cc(CCc2cc(NC(=O)c3ccc(C4CCN(C5CC5)CC4)cc3)[nH]n2)cc(OC)c1 [Example 99, 4-(1-Cyclopropylpiperidin-4-yl)-N-[5-[2-(3,5-dimethoxyphenyl)ethyl]-2H-pyrazol-3-yl]benzamide]",0.91 nM
13,"COc1cc(CCc2cc(NC(=O)c3ccc(N4CCNC(C)(C)C4)cc3)[nH]n2)cc(OC)c1 [Example 139, N-[5-[2-(3,5-dimethoxyphenyl)ethyl]-2H-pyrazol-3-yl]-4-(3,3-dimethylpiperazin-1-yl)benzamide]",0.47 nM
14,"COc1cc(CCc2cc(NC(=O)c3ccc(N4CCN(C(=O)OC(C)(C)C)CC4)s3)[nH]n2)cc(OC)c1 [Example 102, tert-Butyl 4-[5-[[5-[2-(3,5-dimethoxyphenyl)ethyl]-2H-pyrazol-3-yl]carbamoyl]thiophen-2-yl]piperazine-1-carboxylate]",28 nM
15,"COc1cc(COc2cc(NC(=O)c3ccc(N4CCNC(C)(C)C4)s3)[nH]n2)cc(OC)c1 [Example 140, N-[5-[(3,5-dimethoxyphenyl)methoxy]-2H-pyrazol-3-yl]-5-(3,3-dimethylpiperazin-1-yl)thiophene-2-carboxamide]",0.98 nM

# Continued, values first:
row,IC50,Structure (SMILES)
1,1.7 nM,"COc1cc(CCc2cc(NC(=O)c3cnc(N4C[C@@H](C)N(C)[C@@H](C)C4)cn3)[nH]n2)cc(OC)c1 [Example 125, N-[5-[2-(3,5-dimethoxyphenyl)ethyl]-2H-pyrazol-3-yl]-5-[(3R,5S)-3,4,5-trimethylpiperazin-1-yl]pyrazine-2-carboxamide]"
2,3.6 nM,"COc1cc(COc2cc(NC(=O)c3cnc(N4CCN(C)C(C)C4)nc3)[nH]n2)cc(OC)c1 (stereo not drawn) [Example 132, N-[5-[(3,5-dimethoxyphenyl)methoxy]-2H-pyrazol-3-yl]-2-(3,4-dimethylpiperazin-1-yl)pyrimidine-5-carboxamide]"
3,1.7 nM,"COc1cc(CCc2cc(NC(=O)c3cnc(N4C[C@@H](C)N[C@@H](C)C4)cn3)[nH]n2)cc(OC)c1 [Example 112, N-[5-[2-(3,5-dimethoxyphenyl)ethyl]-2H-pyrazol-3-yl]-5-[(3R,5S)-3,5-dimethylpiperazin-1-yl]pyrazine-2-carboxamide]"
4,9.2 nM,"CCN1CCCN(c2ncc(C(=O)Nc3cc(CCc4cc(OC)cc(OC)c4)n[nH]3)cn2)CC1 [Example 171, N-[5-[2-(3,5-dimethoxyphenyl)ethyl]-2H-pyrazol-3-yl]-2-(4-ethyl-1,4-diazepan-1-yl)pyrimidine-5-carboxamide]"
5,1.1 nM,"C#CCN1CCC(c2ccc(C(=O)Nc3cc(CCc4cc(OC)cc(OC)c4)n[nH]3)cc2)CC1 [Example 146, N-[5-[2-(3,5-dimethoxyphenyl)ethyl]-2H-pyrazol-3-yl]-4-(1-prop-2-ynylpiperidin-4-yl)benzamide]"
6,3.9 nM,"COc1cc(COc2cc(NC(=O)c3cnc(N4CCN(C5CC5)CC4)nc3)[nH]n2)cc(OC)c1 [Example 133, 2-(4-cyclopropylpiperazin-1-yl)-N-[5-[(3,5-dimethoxyphenyl)methoxy]-2H-pyrazol-3-yl]pyrimidine-5-carboxamide]"
7,3.6 nM,"COc1cc(CCc2cc(NC(=O)c3cnc(N4CCN(C5CC5)CC4)nc3)[nH]n2)cc(OC)c1 [Example 126, 2-(4-cyclopropylpiperazin-1-yl)-N-[5-[2-(3,5-dimethoxyphenyl)ethyl]-2H-pyrazol-3-yl]pyrimidine-5-carboxamide]"
8,0.78 nM,"C=CCN1CCCN(c2ccc(C(=O)Nc3cc(CCc4cc(OC)cc(OC)c4)n[nH]3)cc2)CC1 [Example 164, N-[5-[2-(3,5-dimethoxyphenyl)ethyl]-2H-pyrazol-3-yl]-4-(4-prop-2-enyl-1,4-diazepan-1-yl)benzamide]"
9,7.3 nM,"COc1cc(CCc2cc(NC(=O)c3cnc(N4CCCN(C5CC5)CC4)nc3)[nH]n2)cc(OC)c1 [Example 177, 2-(4-cyclopropyl-1,4-diazepan-1-yl)-N-[5-[2-(3,5-dimethoxyphenyl)ethyl]-2H-pyrazol-3-yl]pyrimidine-5-carboxamide]"
